Data: ChEMBL document CHEMBL1145395, “De novo design of selective antibiotic peptides by incorporation of unnatural amino acids” (J Med Chem, 2007)
Converted amounts (≈) assume the structure as drawn. The source made the active and inactive calls. The calls are words filed in the database; no cut-off is given here. Non-standard residues stand in square brackets, D forms with d. Residues, ends and D or L forms follow the SMILES beside them. ξ: configuration not given here. Pro(3ξ,4ξ-(CH2)4) = O=C(O)[C@H]1NCC2CCCCC21; Oic = O=C(O)[C@@H]1C[C@@H]2CCCC[C@@H]2N1; Tic = O=C(O)[C@@H]1Cc2ccccc2CN1; dTic = O=C(O)[C@H]1Cc2ccccc2CN1; ξTic = O=C(O)C1Cc2ccccc2CN1; Orn = NCCC[C@H](N)C(=O)O; GABA = NCCCC(=O)O; βAla = NCCC(=O)O

Assays:
Mus musculus [1] = assay: Acute toxicity in mouse at 125 mg/kg, ip after 6 days; type: organism-based; set-up: dose 125 mg/kg, route intraperitoneal; settings: in vivo, 144 h
Mus musculus [2] = assay: Acute toxicity in mouse at 5 mg/kg, ip after 6 days; type: organism-based; set-up: dose 5 mg/kg, route intraperitoneal; settings: in vivo, 144 h
Mus musculus [3] = assay: Acute toxicity in mouse at 25 mg/kg, ip after 6 days; type: organism-based; set-up: dose 25 mg/kg, route intraperitoneal; settings: in vivo, 144 h
[4] = Toxicity to mouse RBC assessed as hemolytic activity at 100 uM; type: cell-based, Erythrocyte; settings: red blood cells, read-out: Activity
[5] = Toxicity to mouse RBC assessed as hemolytic activity at 25 uM; type: cell-based, Erythrocyte; settings: red blood cells, read-out: Activity
Staphylococcus aureus [6] = assay: Antibacterial activity against methicillin/gentamicin/tetracycline resistant Staphylococcus aureus ATCC 33592; type: functional
Salmonella typhimurium = assay: Antibacterial activity against Salmonella Typhimurium ATCC 13311; type: functional, Salmonella enterica subsp. enterica serovar Typhimurium; settings: Salmonella enterica
Mus musculus [7] = assay: Acute toxicity in mouse at 1 mg/kg, ip after 6 days; type: organism-based; set-up: dose 1 mg/kg, route intraperitoneal; settings: in vivo, 144 h
Bacillus subtilis [8] = assay: Antibacterial activity against Bacillus subtilis ATCC 43223; type: functional
Mycobacterium = assay: Antibacterial activity against Mycobacterium ranae ATCC 110; type: functional
Mus musculus [9] = assay: Effect on wound healing in CD1 mouse skin at 100 ug applied topically after 3 days; type: functional
Mus musculus [10] = assay: Effect on wound healing in CD1 mouse skin at 100 ug applied topically after 9 days; type: functional
Mus musculus [11] = assay: Effect on wound healing in CD1 mouse skin at 100 ug applied topically; type: functional
Mus musculus [12] = assay: Effect on wound healing in CD1 mouse skin at 100 ug applied topically after 11 days; type: functional
Mus musculus [13] = assay: Effect on wound healing in CD1 mouse skin at 100 ug applied topically after 7 days; type: functional
Mus musculus [14] = assay: Effect on wound healing in CD1 mouse skin at 100 ug applied topically after 5 days; type: functional
Bacillus subtilis [15] = assay: Antibacterial activity against Bacillus subtilis ATCC 43223 at 100 uM; type: functional, organism-based
Staphylococcus aureus [16] = assay: Antibacterial activity against methicillin/gentamicin/tetracycline resistant Staphylococcus aureus ATCC 33592 at 100 uM; type: functional, organism-based

SMILES	Activity (Mus musculus [1])	Activity (Mus musculus [2])	Activity (Mus musculus [3])	hemolysis at 100 µM [4] [%]	hemolysis at 25 µM [5] [%]	MIC (Staphylococcus aureus [6]) [µM]	MIC (Salmonella typhimurium) [µM]	Activity (Mus musculus [7])	MIC (Bacillus subtilis [8]) [µM]	MIC (Mycobacterium) [µM]	Activity (Mus musculus [9]) [%]	Activity (Mus musculus [10]) [%]	CT50 (Mus musculus [11]) [days]	Activity (Mus musculus [12]) [%]	Activity (Mus musculus [13]) [%]	Activity (Mus musculus [14]) [%]	Activity (Bacillus subtilis [15])	Activity (Staphylococcus aureus [16])
CC(=O)NCC(=O)N[C@@H](Cc1ccccc1)C(=O)N1Cc2ccccc2C[C@H]1C(=O)N1[C@H](C(=O)NCC(=O)N[C@@H](CCCCN)C(=O)N2Cc3ccccc3C[C@H]2C(=O)N2[C@H](C(=O)NCC(=O)N[C@@H](Cc3ccccc3)C(=O)N3Cc4ccccc4C[C@H]3C(=O)N3[C@H](C(=O)NCC(=O)N[C@@H](CCCCN)C(=O)N4Cc5ccccc5C[C@H]4C(=O)N[C@@H](CCCCN)C(=O)N[C@@H](CCCCN)C(=O)N[C@@H](CCCCN)C(=O)N[C@@H](CCCCN)C(N)=O)C[C@@H]4CCCC[C@@H]43)C[C@@H]3CCCC[C@@H]32)C[C@@H]2CCCC[C@@H]21 (Ac-GF[Tic][Oic]GK[Tic][Oic]GF[Tic][Oic]GK[Tic]KKKK-NH2) [listing 1 of 2 here]	Toxic	Toxic	Toxic	14														
CC(=O)N[C@@H](Cc1ccccc1)C(=O)N1Cc2ccccc2C[C@H]1C(=O)N1CC2CCCCC2[C@H]1C(=O)N[C@@H](CCCCN)C(=O)N1Cc2ccccc2C[C@H]1C(=O)N1CC2CCCCC2[C@H]1C(=O)N[C@@H](Cc1ccccc1)C(=O)N1Cc2ccccc2C[C@H]1C(=O)N1CC2CCCCC2[C@H]1C(=O)N[C@@H](CCCCN)C(=O)N1Cc2ccccc2C[C@H]1C(=O)N[C@@H](CCCCN)C(=O)N[C@@H](CCCCN)C(=O)N[C@@H](CCCCN)C(=O)N[C@@H](CCCCN)C(N)=O (some centres not stated) (Ac-F[Tic][Pro(3ξ,4ξ-(CH2)4)]K[Tic][Pro(3ξ,4ξ-(CH2)4)]F[Tic][Pro(3ξ,4ξ-(CH2)4)]K[Tic]KKKK-NH2)		Non-toxic	Non-toxic	86.8	50	3 (≈ 6.64 µg/mL)	10 (≈ 22.1 µg/mL)	Non-toxic	1 (≈ 2.21 µg/mL)	30 (≈ 66.4 µg/mL)								
CC(=O)NCC(=O)N[C@@H](Cc1ccccc1)C(=O)N1Cc2ccccc2C[C@H]1C(=O)N1CC2CCCCC2[C@H]1C(=O)NCC(=O)N[C@@H](CCCN)C(=O)N1Cc2ccccc2C[C@H]1C(=O)N1CC2CCCCC2[C@H]1C(=O)NCC(=O)N[C@@H](Cc1ccccc1)C(=O)N1Cc2ccccc2C[C@H]1C(=O)N1CC2CCCCC2[C@H]1C(=O)NCC(=O)N[C@@H](CCCN)C(=O)N1Cc2ccccc2C[C@H]1C(=O)N[C@@H](CCCN)C(=O)N[C@@H](CCCN)C(=O)N[C@@H](CCCN)C(=O)N[C@@H](CCCN)C(N)=O (some centres not stated) (Ac-GF[Tic][Pro(3ξ,4ξ-(CH2)4)]G[Orn][Tic][Pro(3ξ,4ξ-(CH2)4)]GF[Tic][Pro(3ξ,4ξ-(CH2)4)]G[Orn][Tic][Orn][Orn][Orn][Orn]-NH2)						3 (≈ 7.07 µg/mL)	3 (≈ 7.07 µg/mL)		0.3 (≈ 0.707 µg/mL)	10 (≈ 23.6 µg/mL)	38.8	72.8	4.7	81.1	67.2	51.2		
CC(=O)NCCCC(=O)N[C@@H](Cc1ccccc1)C(=O)N1Cc2ccccc2C[C@H]1C(=O)N1[C@H](C(=O)NCCCC(=O)N[C@@H](CCCCN)C(=O)N2Cc3ccccc3C[C@H]2C(=O)N2[C@H](C(=O)NCCCC(=O)N[C@@H](Cc3ccccc3)C(=O)N3Cc4ccccc4C[C@H]3C(=O)N3[C@H](C(=O)NCCCC(=O)N[C@@H](CCCCN)C(=O)N4Cc5ccccc5C[C@H]4C(=O)N[C@@H](CCCCN)C(=O)N[C@@H](CCCCN)C(=O)N[C@@H](CCCCN)C(=O)N[C@@H](CCCCN)C(N)=O)C[C@@H]4CCCC[C@@H]43)C[C@@H]3CCCC[C@@H]32)C[C@@H]2CCCC[C@@H]21 (Ac-[GABA]F[Tic][Oic][GABA]K[Tic][Oic][GABA]F[Tic][Oic][GABA]K[Tic]KKKK-NH2) [listing 1 of 2 here]						10 (≈ 25.5 µg/mL)	100 (≈ 255 µg/mL)		1 (≈ 2.55 µg/mL)	10 (≈ 25.5 µg/mL)	39.7	72.7	5.7	79	64.9	54.1		
CC(=O)NCC(=O)N[C@@H](Cc1ccccc1)C(=O)N1Cc2ccccc2C[C@H]1C(=O)N1[C@H](C(=O)NCC(=O)N[C@@H](CCCCN)C(=O)N2Cc3ccccc3C[C@H]2C(=O)N2[C@H](C(=O)NCC(=O)N[C@@H](Cc3ccccc3)C(=O)N3Cc4ccccc4C[C@H]3C(=O)N3[C@H](C(=O)NCC(=O)N[C@@H](CCCCN)C(=O)N4Cc5ccccc5C[C@H]4C(=O)N[C@@H](CCCCN)C(=O)N[C@@H](CCCCN)C(=O)N[C@@H](CCCCN)C(=O)N[C@@H](CCCCN)C(N)=O)C[C@@H]4CCCC[C@@H]43)C[C@@H]3CCCC[C@@H]32)C[C@@H]2CCCC[C@@H]21 (Ac-GF[Tic][Oic]GK[Tic][Oic]GF[Tic][Oic]GK[Tic]KKKK-NH2) [listing 2 of 2 here]						3 (≈ 7.32 µg/mL)	10 (≈ 24.4 µg/mL)		1 (≈ 2.44 µg/mL)	10 (≈ 24.4 µg/mL)	36.3	69.8	6.1	77.5	63.3	51.5		
CC(=O)NCCC(=O)N[C@@H](Cc1ccccc1)C(=O)N1Cc2ccccc2C[C@H]1C(=O)N1CC2CCCCC2[C@H]1C(=O)NCCC(=O)N[C@@H](CCCCN)C(=O)N1Cc2ccccc2C[C@H]1C(=O)N1CC2CCCCC2[C@H]1C(=O)NCCC(=O)N[C@@H](Cc1ccccc1)C(=O)N1Cc2ccccc2C[C@@H]1C(=O)N1CC2CCCCC2[C@H]1C(=O)NCCC(=O)N[C@@H](CCCCN)C(=O)N1Cc2ccccc2C[C@H]1C(=O)N[C@@H](CCCCN)C(=O)N[C@@H](CCCCN)C(=O)N[C@@H](CCCCN)C(=O)N[C@@H](CCCCN)C(N)=O (some centres not stated) (Ac-[βAla]F[Tic][Pro(3ξ,4ξ-(CH2)4)][βAla]K[Tic][Pro(3ξ,4ξ-(CH2)4)][βAla]F[dTic][Pro(3ξ,4ξ-(CH2)4)][βAla]K[Tic]KKKK-NH2)	Toxic	Toxic	Toxic	24.4	7.4	10 (≈ 25 µg/mL)	10 (≈ 25 µg/mL)		1 (≈ 2.5 µg/mL)	1 (≈ 2.5 µg/mL)								
CC[C@H](C)[C@H](NC(=O)[C@H](CCC(=O)O)NC(=O)CNC(=O)[C@@H](NC(=O)[C@H](Cc1ccccc1)NC(=O)[C@H](C)NC(=O)[C@H](CCCCN)NC(=O)CNC(=O)[C@H](Cc1ccccc1)NC(=O)[C@H](CCCCN)NC(=O)CNC(=O)[C@H](C)NC(=O)[C@H](CO)NC(=O)[C@H](Cc1cnc[nH]1)NC(=O)[C@H](CC(C)C)NC(=O)[C@H](Cc1ccccc1)NC(=O)[C@H](CCCCN)NC(=O)CNC(=O)[C@H](NC(=O)CN)[C@@H](C)CC)C(C)C)C(=O)N[C@@H](CCSC)C(=O)N[C@@H](CCCCN)C(=O)N[C@@H](CO)C(N)=O																	inactive	inactive
CC(=O)NCCCC(=O)N[C@@H](Cc1ccccc1)C(=O)N1Cc2ccccc2C[C@H]1C(=O)N1[C@H](C(=O)NCCCC(=O)N[C@@H](CCCCN)C(=O)N2Cc3ccccc3C[C@H]2C(=O)N2[C@H](C(=O)NCCCC(=O)N[C@@H](Cc3ccccc3)C(=O)N3Cc4ccccc4C[C@H]3C(=O)N3[C@H](C(=O)NCCCC(=O)N[C@@H](CCCCN)C(=O)N4Cc5ccccc5C[C@H]4C(=O)N[C@@H](CCCCN)C(=O)N[C@@H](CCCCN)C(=O)N[C@@H](CCCCN)C(=O)N[C@@H](CCCCN)C(N)=O)C[C@@H]4CCCC[C@@H]43)C[C@@H]3CCCC[C@@H]32)C[C@@H]2CCCC[C@@H]21 (Ac-[GABA]F[Tic][Oic][GABA]K[Tic][Oic][GABA]F[Tic][Oic][GABA]K[Tic]KKKK-NH2) [listing 2 of 2 here]		Non-toxic	Non-toxic	10.8	1			Non-toxic										
CC(=O)NCC(=O)N1Cc2ccccc2C[C@H]1C(=O)N1CC2CCCCC2[C@H]1C(=O)N[C@@H](CCCCN)C(=O)N1Cc2ccccc2C[C@H]1C(=O)N1CC2CCCCC2[C@H]1C(=O)NCC(=O)N1Cc2ccccc2CC1C(=O)N1CC2CCCCC2[C@H]1C(=O)N[C@@H](CCCCN)C(=O)N1Cc2ccccc2C[C@H]1C(=O)N[C@@H](CCCCN)C(=O)N[C@@H](CCCCN)C(=O)N[C@@H](CCCCN)C(=O)N[C@@H](CCCCN)C(N)=O (some centres not stated) (Ac-G[Tic][Pro(3ξ,4ξ-(CH2)4)]K[Tic][Pro(3ξ,4ξ-(CH2)4)]G[ξTic][Pro(3ξ,4ξ-(CH2)4)]K[Tic]KKKK-NH2)		Non-toxic	Non-toxic	26.7	9.2	10 (≈ 20.3 µg/mL)	10 (≈ 20.3 µg/mL)	Non-toxic	1 (≈ 2.03 µg/mL)	3 (≈ 6.1 µg/mL)								
CC(C)C[C@H](NC(=O)[C@@H](N)CCCCN)C(=O)N1Cc2ccccc2C[C@H]1C(=O)N1CC2CCCCC2[C@H]1C(=O)NCC(=O)N[C@@H](CCCCN)C(=O)N1Cc2ccccc2C[C@H]1C(=O)N1CC2CCCCC2[C@H]1C(=O)NCC(=O)N[C@@H](Cc1ccccc1)C(=O)N1Cc2ccccc2C[C@H]1C(=O)N1CC2CCCCC2[C@H]1C(=O)NCC(=O)N[C@@H](CCCCN)C(=O)N1Cc2ccccc2C[C@H]1C(=O)N[C@@H](CCCCN)C(=O)N[C@@H](CCCCN)C(=O)N[C@@H](CCCCN)C(=O)N[C@@H](CCCCN)C(N)=O (some centres not stated) (H-KL[Tic][Pro(3ξ,4ξ-(CH2)4)]GK[Tic][Pro(3ξ,4ξ-(CH2)4)]GF[Tic][Pro(3ξ,4ξ-(CH2)4)]GK[Tic]KKKK-NH2)		Non-toxic	Non-toxic	43.6	24.9	30 (≈ 73.1 µg/mL)	3 (≈ 7.31 µg/mL)	Non-toxic	1 (≈ 2.44 µg/mL)	3 (≈ 7.31 µg/mL)								
